Literature values, collected in US20100209368A1, “METHOD AND PREPARATION FOR TREATING BALDNESS” (priority 2009, published 2010).

How the values were obtained:
[1] = not given; remark: listed apart in the source

## O=C(OOC(=O)c1ccccc1)c1ccccc1 [Benzoyl peroxide, benzoyl peroxide]
PEG or isopropyl myristate with added water or ethanol
  stability upon addition of water or ethanol: greatly increased
Pure PEG or isopropyl myristate
  stability in pure solvents: not stable
[1]; ethanol
  solubility in ethanol: slight solubility
[1]; isopropyl myristate
  solubility in isopropyl myristate: soluble
[1]; polyethylene glycol
  solubility in polyethylene glycol (PEG): soluble
[1]
  solubility in water: low solubility

## zinc pyrithione
[1]
  solubility in water: sparingly soluble
